Source: patent US11510920B2, “Compositions and methods for treating EZH2-mediated cancer” (Icahn School of Medicine at Mount Sinai, priority 2016, dated 2022)

What was measured:
Type in all cases: cell-based
HCC1170 cells = experiment: Proliferation assay (IncuCyte cell confluence), HCC1170; details: concentration for 50% of maximal inhibition of cell proliferation
Method: (§1) 1-3×10^3 cells were seeded in 96-well plates in duplicates and treated at the indicated compound concentrations. Cells were monitored using the IncuCyte® live cell imaging system (Essen BioScience™, Ann Arbor, Mich.) which was placed in a cell culture incubator operated at 37° C. and 5% CO2. Cell confluence was determined using calculations derived from phase-contrast images. The concentration for 50% of maximal inhibition of cell proliferation (GI50) values were determined by fitting to a standard four-parameter logistic using GraphPad Prism® v5. Graphs depicting the GI50s of select EZH2 degraders/disruptors described here for various cancer cell lines are shown in FIGS. 4-49.

HCC1187 cells = experiment: Proliferation assay (IncuCyte cell confluence), HCC1187; details: Homo sapiens, concentration for 50% of maximal inhibition of cell proliferation
Method: as §1

MCF-7 cells = experiment: Proliferation assay (IncuCyte cell confluence), MCF-7; details: Homo sapiens, MCF7, concentration for 50% of maximal inhibition of cell proliferation
Method: as §1

MDA-MB-468 cells = experiment: Proliferation assay (IncuCyte cell confluence), MDA-MB-468; details: Homo sapiens, concentration for 50% of maximal inhibition of cell proliferation
Method: as §1

HCC1954 cells = experiment: Proliferation assay (IncuCyte cell confluence), HCC1954; details: Homo sapiens, concentration for 50% of maximal inhibition of cell proliferation
Method: as §1

BT549 cells = experiment: Proliferation assay (IncuCyte cell confluence), BT549; details: Homo sapiens, BT-549, concentration for 50% of maximal inhibition of cell proliferation
Method: as §1

| GI50 (HCC1170 cells) [µM] | GI50 (HCC1187 cells) [µM] | GI50 (MCF-7 cells) [µM] | GI50 (MDA-MB-468 cells) [µM] | GI50 (HCC1954 cells) [µM] | GI50 (BT549 cells) [µM] | SMILES |
| --- | --- | --- | --- | --- | --- | --- |
| 1.2 | 0.57 | 1.2 | 1.4 |  |  | CCCc1cc(C)[nH]c(=O)c1CNC(=O)c1cc(-c2ccc(N3CCN(CCNC(=O)CC45CC6CC(CC(C6)C4)C5)CC3)nc2)cc2c1cnn2C(C)C [AM16-10A, 6-(6-(4-(2-(2-((3r,5r,7r)-adamantan-1-yl)acetamido)ethyl)piperazin-1-yl)pyridin-3-yl)-1-isopropyl-N-((6-methyl-2-oxo-4-propyl-1,2-dihydropyridin-3-yl)methyl)-1H-indazole-4-carboxamide] |
|  | 1.1 | 1 |  |  |  | Cc1cc(C)c(CNC(=O)c2cc(-c3ccc(N4CCN(C(=O)CC56CC7CC(CC(C7)C5)C6)CC4)nc3)cc3c2cnn3C(C)C)c(=O)[nH]1 [AM16-92A, 6-(6-(4-(2-((1s,3s)-adamantan-1-yl)acetyl)piperazin-1-yl)pyridin-3-yl)-N-((4,6-dimethyl-2-oxo-1,2-dihydropyridin-3-yl)methyl)-1-isopropyl-1H-indazole-4-carboxamide] |
|  |  |  | 1.2 | 2.1 | 1.4 | Cc1cc(C)c(CNC(=O)c2cc(-c3ccc(N4CCN(CCNCCC56CC7CC(CC(C7)C5)C6)CC4)nc3)cc3c2cnn3C(C)C)c(=O)[nH]1 [AM16-103A, 6-(6-(4-(2-((2-((3r,5r,7r)-adamantan-1-yl)ethyl)amino)ethyl)piperazin-1-yl)pyridin-3-yl)-N-((4,6-dimethyl-2-oxo-1,2-dihydropyridin-3-yl)methyl)-1-isopropyl-1H-indazole-4-carboxamide] |
|  | 1.2 | 2.3 |  |  |  | Cc1cc(C)c(CNC(=O)c2cc(-c3ccc(N4CCN(CCNC(=O)[C@H](C)CCC56CC7CC(CC(C7)C5)C6)CC4)nc3)cc3c2cnn3C(C)C)c(=O)[nH]1 [AM16-105A, 6-(6-(4-(2-((2R)-4-((1r,3S)-adamantan-1-yl)-2-methyl-butanamido)ethyl)piperazin-1-yl)pyridin-3-yl)-N-((4,6-dimethyl-2-oxo-1,2-dihydropyridin-3-yl)methyl)-1-isopropyl-1H-indazole-4-carboxamide] |
|  |  |  | 1.8 | 3.9 | 2.5 | Cc1cc(C)c(CNC(=O)c2cc(-c3ccc(N4CCN(CCNC(=O)CC5C6CC7CC(C6)CC5C7)CC4)nc3)cc3c2cnn3C(C)C)c(=O)[nH]1 (stereo not shown) [AM29-182A, 6-(6-(4-(2-(2-((1r,3r,5r,7r)-adamantan-2-yl)acetamido)ethyl)piperazin-1-yl)pyridin-3-yl)-N-((4,6-dimethyl-2-oxo-1,2-dihydropyridin-3-yl)methyl)-1-isopropyl-1H-indazole-4-carboxamide] |
|  | 0.65 | 0.35 | 0.54 | 2.7 | 2.2 | Cc1cc(C)c(CNC(=O)c2cc(-c3ccc(N4CCN(CCNC(=O)CC56CC7CC(CC(C7)C5)C6)CC4)nc3)cc3c2cnn3C(C)C)c(=O)[nH]1 [XY019-43, 6-(6-(4-(2-(2-((3r,5r,7r)-adamantan-1-yl)acetamido)ethyl)piperazin-1-yl)pyridin-3-yl)-N-((4,6-dimethyl-2-oxo-1,2-dihydropyridin-3-yl)methyl)-1-isopropyl-1H-indazole-4-carboxamide] |
